Five compounds from patent publication US8637568B2, “Serotonin reuptake inhibitors” (Theravance, Inc., priority 2010, dated 2014) can be followed below.

In test [1] the target is T1, human recombinant serotonin transporter (hSERT) (Homo sapiens, UniProt P31645).
T1 construct: expressed in transfected cells; host or cells: HEK-293 (stably transfected), membrane preparation
Nature of the test: hSERT binding assay (3H-citalopram membrane radioligand binding). Particulars: inhibition of 3H-citalopram binding to membranes from HEK-293 cells expressing hSERT; Cheng-Prusoff; read-out: SERT pKi (converted). The protocol:
Protein concentration of the membrane suspension was determined using a Bio-Rad Bradford Protein Assay kit. Membranes were snap frozen and stored at −80° C.
Following a 60 minute incubation at 22° C. […] IC50 values were generated from concentration response curves using the Sigmoidal Dose Response (variable slope) algorithm in Prism GraphPad.

For test [2], the target named is T2, human recombinant SERT (HEK293-hSERT cells) (Homo sapiens, UniProt P31645).
T2 construct: expressed in transfected cells; host or cells: HEK293 (stably transfected), whole cells
T2 sequence (P31645 whole entry): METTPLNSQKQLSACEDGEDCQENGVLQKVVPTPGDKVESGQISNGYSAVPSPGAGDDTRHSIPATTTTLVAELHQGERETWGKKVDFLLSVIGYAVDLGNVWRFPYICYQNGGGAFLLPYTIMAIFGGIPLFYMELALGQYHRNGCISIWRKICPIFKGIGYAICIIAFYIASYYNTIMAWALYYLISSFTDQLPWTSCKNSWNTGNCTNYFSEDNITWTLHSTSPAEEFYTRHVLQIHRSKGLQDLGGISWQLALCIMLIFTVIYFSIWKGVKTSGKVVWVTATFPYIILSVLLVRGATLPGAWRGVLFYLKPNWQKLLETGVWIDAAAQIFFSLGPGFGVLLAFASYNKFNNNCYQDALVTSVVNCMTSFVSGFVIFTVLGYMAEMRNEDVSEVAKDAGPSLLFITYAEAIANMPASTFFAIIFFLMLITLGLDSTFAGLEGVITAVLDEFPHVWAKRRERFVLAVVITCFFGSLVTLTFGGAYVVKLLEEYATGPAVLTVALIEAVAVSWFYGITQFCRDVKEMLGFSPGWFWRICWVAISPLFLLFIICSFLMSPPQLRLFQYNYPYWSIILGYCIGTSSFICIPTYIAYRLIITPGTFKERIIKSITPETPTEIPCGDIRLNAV
The experiment in a line: hSERT neurotransmitter uptake assay. Particulars: serotonin reuptake inhibition in HEK293-hSERT cells; read-out: SERT pIC50 (converted). Type of test: cell-based. The protocol: HEK293 cells stably-transfected with human recombinant SERT (HEK293-hSERT) were grown in Dulbecco's Modified Eagle's Medium supplemented with 10% dialyzed fetal bovine serum, 100 µg/ml penicillin, 100 µg/ml streptomycin, 2 mM L-glutamine, and 250 μg/ml of the aminoglycoside antibiotic G418. Cells were incubated in a 5% CO2, humidified incubator at 37° C.
In pre-incubation studies, test compound was added to cells for 30 minutes at 37° C. prior to the addition of fluorescent substrate. […] For real-time measurements, compounds were either preincubated (as above) or mixed with substrate prior to addition, and kinetic measurements, relative fluorescence units (RFU integrated over 0.5 ms),were made using a cycle time of 1 min.

Structures are written as SMILES.

T1 sequence (P31645 whole entry): as above

Consider `CS(=O)(=O)NC[C@@H](Oc1ccc(C(F)(F)F)cc1)[C@H]1CCNC1` [Example 3-1, N-[(S)-2-(S)-Pyrrolidin-3-yl-2-(4-trifluoromethylphenoxy)ethyl]-methanesulfonamide], for which the Ki in test [1] was no more than 10 nM. Moreover, the IC50 in test [2] was no more than 10 nM.
As to `CC(=O)N(C[C@@H](Oc1ccc(C(F)(F)F)cc1)[C@H]1CCNC1)S(C)(=O)=O` [Example 3-4, N-Acetyl-N-[(S)-2-(S)-pyrrolidin-3-yl-2-(4-trifluoromethylphenoxy)ethyl]-methanesulfonamide], the Ki in test [1] was no more than 10 nM. Moreover, in test [2], the IC50 is no more than 10 nM.
In the case of `O=C(O)c1ccc(S(=O)(=O)NC[C@@H](Oc2ccc(C(F)(F)F)cc2)[C@H]2CCNC2)cc1` [Example 3-21, 4-[(S)-2-(S)-Pyrrolidin-3-yl-2-(4-trifluoromethylphenoxy)ethylsulfamoyl]-benzoic acid], the Ki in test [1] was no more than 100 nM. The IC50 in test [2] was no more than 100 nM.
With `CNS(=O)(=O)C[C@@H](Oc1ccc(C(F)(F)F)cc1)[C@H]1CCNC1` [Example 6, (S)-2-(S)-Pyrrolidin-3-yl-2-(4-trifluoromethylphenoxy)ethanesulfonic Acid Methylamide], the IC50 in test [2] was no more than 10 nM.
As for `CN(C)S(=O)(=O)C[C@@H](Oc1ccc(C(F)(F)F)cc1)[C@H]1CCNC1` [Example 7-1, (S)-2-(S)-Pyrrolidin-3-yl-2-(4-trifluoromethylphenoxy)ethanesulfonic acid dimethylamide], the IC50 in test [2] was no more than 10 nM.
